Reference: patent publication US5278184A, “Synthetic derivatives of pyrrole and pyrrolidine suitable for the therapy of infections caused by rhinoviruses” (Repla Chemical Ltd., priority 1991, dated 1994)

Test system: Herpes Simplex Virus type 1 (HSV-1)
Assay: Viral plaque reduction, HSV-1 on Vero cells
Type: cell-based
Conditions: Human alphaherpesvirus 1, Vero, read-out: MIC, HSV-1
With `Cn1cc(C(=O)CCCCOc2ccc(C3=NCCO3)cc2)cc1C=O` [Compound 395] the EC50 was > 280 µM.
For `O=C(CCCCOc1ccc(C2=NCCO2)cc1)c1ccc(Cl)s1` [Compound 366], the EC50 was > 275 µM.
In the case of `Cn1cc(C(=O)CCCCOc2ccc(C(=O)O)cc2)cc1C=O` [Compound 394], the EC50 is reported as > 380 µM.
For `Cn1cccc1C(=O)CCCCOc1ccc(C2=NCCO2)cc1` [Compound 414], the EC50 was > 300 µM.

Test system: Vesicular Stomatitis Virus (VSV)
Assay: microbe, parasite or virus in culture
Type: cell-based
Conditions: Vero, read-out: MIC, VSV
For `Cn1cc(C(=O)CCCCOc2ccc(C3=NCCO3)cc2)cc1C=O` [Compound 395], the EC50 was > 280 µM.
With `O=C(CCCCOc1ccc(C2=NCCO2)cc1)c1ccc(Cl)s1` [Compound 366] the EC50 was > 275 µM.
For `Cn1cc(C(=O)CCCCOc2ccc(C(=O)O)cc2)cc1C=O` [Compound 394], the EC50 was > 380 µM.
With `Cn1cccc1C(=O)CCCCOc1ccc(C2=NCCO2)cc1` [Compound 414] the EC50 was > 300 µM.

Test system: HRV-14
Assay: Viral plaque reduction, HRV-14 on HeLa cells
Type: cell-based, human rhinovirus
Conditions: Rhinovirus B, HRV14; Table 1 and text; 50% plaque reduction, HeLa cells, 33° C; read-out: MIC, HRV-14
Work on `Cn1cc(C(=O)CCCCOc2ccc(C3=NCCO3)cc2)cc1C=O` [Compound 395] yielded an EC50 of 5 µM.
Work on `O=C(CCCCOc1ccc(C2=NCCO2)cc1)c1ccc(Cl)s1` [Compound 366] yielded an EC50 of 0.05 µM.
`Cn1cc(C(=O)CCCCOc2ccc(C(=O)O)cc2)cc1C=O` [Compound 394] showed an EC50 of 7 µM.
For `Cn1cccc1C(=O)CCCCOc1ccc(C2=NCCO2)cc1` [Compound 414], the EC50 was 0.8 µM.

Same assay, conditions: Table 1
In the case of `Cn1cc(C(=O)CCCCOc2ccc(C3=NCCO3)cc2)cc1C=O` [Compound 395], the “activity and selectivity to HRV-14 compared with the two previously known compounds” value is reported as “less effective, but even more selective to HRV-14”.
In the case of `Cn1cc(C(=O)CCCCOc2ccc(C(=O)O)cc2)cc1C=O` [Compound 394], the “activity and selectivity to HRV-14 compared with the two previously known compounds” value is reported as “less effective, but even more selective to HRV-14”.

Same assay, conditions: Table 1 and text; HeLa MTL / HRV-14 MIC
For `Cn1cc(C(=O)CCCCOc2ccc(C3=NCCO3)cc2)cc1C=O` [Compound 395], the “S.I. (Selectivity Index): MTL/MIC ratio” value was > 85.
With `Cn1cc(C(=O)CCCCOc2ccc(C(=O)O)cc2)cc1C=O` [Compound 394] the “S.I. (Selectivity Index): MTL/MIC ratio” value was > 87.
For `Cn1cccc1C(=O)CCCCOc1ccc(C2=NCCO2)cc1` [Compound 414], the “S.I. (Selectivity Index): MTL/MIC ratio” value was > 762.

Test system: HeLa cells
Assay: not given
Conditions: not given
With `O=C(CCCCOc1ccc(C2=NCCO2)cc1)c1ccc(Cl)s1` [Compound 366] the cytotoxicity levels was “low cytotoxicity levels”.
For `Cn1cccc1C(=O)CCCCOc1ccc(C2=NCCO2)cc1` [Compound 414], the cytotoxicity levels was “low cytotoxicity levels”.

Test system: Virus Vaccinicum (VV)
Assay: Viral plaque reduction, VV on Vero cells
Type: cell-based
Conditions: Table 1, 50% plaque reduction, 37° C, read-out: MIC, VV
For `Cn1cc(C(=O)CCCCOc2ccc(C3=NCCO3)cc2)cc1C=O` [Compound 395], the EC50 was > 280 µM.
With `O=C(CCCCOc1ccc(C2=NCCO2)cc1)c1ccc(Cl)s1` [Compound 366] the EC50 was > 275 µM.
With `Cn1cc(C(=O)CCCCOc2ccc(C(=O)O)cc2)cc1C=O` [Compound 394] the EC50 was > 380 µM.
In the case of `Cn1cccc1C(=O)CCCCOc1ccc(C2=NCCO2)cc1` [Compound 414], the EC50 is reported as > 300 µM.

Test system: Poliomyelitis Virus type 1 (Sb-1)
Assay: microbe, parasite or virus in culture
Type: cell-based
Conditions: Vero, read-out: MIC, Sb-1
For `Cn1cc(C(=O)CCCCOc2ccc(C3=NCCO3)cc2)cc1C=O` [Compound 395], the EC50 was > 280 µM.
Work on `O=C(CCCCOc1ccc(C2=NCCO2)cc1)c1ccc(Cl)s1` [Compound 366] yielded an EC50 of 200 µM.
With `Cn1cc(C(=O)CCCCOc2ccc(C(=O)O)cc2)cc1C=O` [Compound 394] the EC50 was > 380 µM.
For `Cn1cccc1C(=O)CCCCOc1ccc(C2=NCCO2)cc1` [Compound 414], the EC50 was > 300 µM.

Test system: not listed separately
Assay: in vitro
Conditions: monkey, vero cells
For `Cn1cc(C(=O)CCCCOc2ccc(C3=NCCO3)cc2)cc1C=O` [Compound 395], the MNTC was > 280 µM.
For `O=C(CCCCOc1ccc(C2=NCCO2)cc1)c1ccc(Cl)s1` [Compound 366], the MNTC was > 275 µM.
Work on `Cn1cc(C(=O)CCCCOc2ccc(C(=O)O)cc2)cc1C=O` [Compound 394] yielded an MNTC of 380 µM.
With `Cn1cccc1C(=O)CCCCOc1ccc(C2=NCCO2)cc1` [Compound 414] the MNTC was > 300 µM.

Test system: rhinoviruses
Assay: not given
Conditions: literature; interaction with proteins of the virus capsid; cited from earlier work
In the case of “4-ethoxy-2'-hydroxy-4', 6-dimethoxychalcone [RO 09-0410]”, the inhibition of rhinoviruses is listed as “inhibit a wide range of rhinoviruses”.
In the case of `CCCCCCCCCCCCCCOc1ccc(C(C)=O)o1` [RMI-15,731, 1-[5-(tetradecyloxy)-2-furanyl]ethanone], the inhibition of rhinoviruses is given as “inhibit a wide range of rhinoviruses”.

Test system: not listed separately
Assay: in vitro
Conditions: human, hela cells
With `Cn1cc(C(=O)CCCCOc2ccc(C3=NCCO3)cc2)cc1C=O` [Compound 395] the MNTC was > 425 µM.
In the case of `O=C(CCCCOc1ccc(C2=NCCO2)cc1)c1ccc(Cl)s1` [Compound 366], the MNTC is reported as > 410 µM.
In the case of `Cn1cc(C(=O)CCCCOc2ccc(C(=O)O)cc2)cc1C=O` [Compound 394], the MNTC is reported as > 610 µM.
For `Cn1cccc1C(=O)CCCCOc1ccc(C2=NCCO2)cc1` [Compound 414], the MNTC was > 610 µM.

Test system: Coxsackie Virus B1 (Coxs)
Assay: Viral plaque reduction, Coxs on Vero cells
Type: cell-based
Conditions: Table 1, 50% plaque reduction, 37° C, read-out: MIC, Coxs
With `Cn1cc(C(=O)CCCCOc2ccc(C3=NCCO3)cc2)cc1C=O` [Compound 395] the EC50 was > 280 µM.
In the case of `O=C(CCCCOc1ccc(C2=NCCO2)cc1)c1ccc(Cl)s1` [Compound 366], the EC50 is reported as > 275 µM.
For `Cn1cc(C(=O)CCCCOc2ccc(C(=O)O)cc2)cc1C=O` [Compound 394], the EC50 was > 380 µM.
In the case of `Cn1cccc1C(=O)CCCCOc1ccc(C2=NCCO2)cc1` [Compound 414], the EC50 is reported as > 300 µM.
